Laboratory results published in patent US10932483B2, “Sweetness enhancer” (PepsiCo, Inc., priority 2014, dated 2021).
Where “and” joins values, the source holds several entries; their conditions need not be identical. Equal values may be shown once. Entries after “also recorded” stand apart in the source; their conditions may differ.

Experiments:
[1] = Physicochemical properties of phloroglucinol; settings: concentrations described; higher temperatures; sunlight
human sense of taste [2] = test: Taste of phloroglucinol in water, alone or with salt; assay type: in vivo
Protocol: (§1) General Tasting Procedure: Unless otherwise specified in a given example, tastings were performed by a single taster using a “sip, spit, rinse” protocol. Under this protocol, the taster: • a. sipped up to about 10 ml of a given solution and assessed the sweetness, mouthfeel, and other characteristics of the solution during its residence in the taster's mouth; • b. spit out the solution after making the assessment; and • c. rinsed with water to cleanse the palate before testing any further samples.
To analyze this effect, an experiment was conducted to determine whether NaCl could be used as a supplemental sweetness enhancer.

human sense of taste [3] = test: Taste of sugar solutions with phloroglucinol and salt against sugar controls; assay type: in vivo; settings: for phloroglucinol concentration required to achieve the sweetness of an 11% sugar solution: 8% sugar
Protocol: as §1
Half remained as a low control. Salt (300 ppm) was added to the other half (the “variant”). An 11% sugar solution was prepared as a high control.

human sense of taste [4] = test: Taste of QUAKER Instant Oatmeal containing phloroglucinol; assay type: in vivo
Protocol: Sugar was added to unsweetened QUAKER Instant Oatmeal (IQO) Original flavor. A high sugar control comprising 8 g sugar per bag of IQO (29 g) was prepared. A low sugar control comprising 5 g sugar per bag of IQO (29 g) was also prepared. […] The high control, low control, and variant formulations were placed in individual beakers and combined with about 200 mL of hot water. The resulting mixtures were stirred and then tasted. Taste tests were conducted while the mixtures were still warm and after the mixtures had cooled to room temperature.
The high and low controls described in Example 14 were again prepared. […] The high control, low control, and variant formulations were placed in individual beakers and combined with about 200 mL of hot water. The resulting mixtures were stirred and then tasted. Tasting was performed while the IQO was warm and after the IQO cooled to room temperature.

human sense of taste [5] = test: Taste of beverages (cola, SIERRA MIST, diet cola) containing phloroglucinol; assay type: in vivo
Protocol: Sources: A bottle of cola concentrate (HFCS-55) and a bottle of concentrate having ⅓ less HFCS (the “Brix-reduced syrup”) were obtained. […] Both concentrates were then used to make cola beverages (volume 4.5 carbonated water) in a 1 plus 5 throw manner.
Experiments were conducted on a sugar reduced cola beverage. A control bottle of cola concentrate (HFCS-55) and a bottle of Brix reduced variant concentrate having 35% less HFCS than the control were used. […] Both concentrates were then used to make cola beverages with volume 4.5 carbonated water in a 1 plus 5 throw manner.
Taste experiments were conducted for a diet cola beverage. Unsweetened diet cola concentrate was used. Control syrup 1 was made by adding 3000 ppm aspartame to the concentrate. Control syrup 2 was made by adding 2400 ppm rebaudioside M to the diet cola concentrate. […] All concentrates were then used to make diet cola beverages with volume 4.5 carbonated water in a 1 plus 5 throw manner.
The finished control diet cola beverage 1 contained 500 ppm aspartame.
A total of 5 diet cola tasters evaluated the four beverages.

human sense of taste [6] = test: Taste of sugar solutions with phloroglucinol and supplemental sweetness enhancers; assay type: in vivo; settings: Example 22: 500 ppm phloroglucinol, 350 ppm rebaudioside C, 8% sugar
Protocol: as §1
Three tasters conducted taste experiments on the blends identified in the table, below.
Experiments were conducted utilizing phloroglucinol and rebaudioside C in a sugar solutions.
Two testers tasted each of solutions 1 through 5, in the table above.
Taste experiments were conducted with sugar solutions comprising phloroglucinol and one of rebaudioside B, rebaudioside M, and trilobatin as set forth in the table, below.
Two testers tasted these solutions.
Five aqueous solutions comprising sugar, phloroglucinol, and/or rubusoside were prepared as set forth in the table below and tested for sweetness.

human sense of taste [7] = test: Sweet taste intensity ranking by trained sensory discrimination panelists; assay type: in vivo
Excerpt: (§2) Panelists were asked to rank the samples in order of sweet taste intensity from low sweet to high sweet. Each panelist tasted each sample twice during the study such that each sample was judged a total of 30 times.
as §2
Panelists were asked to rank the samples in order of sweet taste intensity from low sweet to high sweet. Each panelist was presented a replicate set to render a total of 32 judgment data points.

human sense of taste [8] = test: Lab taste test (sip, spit, rinse) of sweetener solutions containing phloroglucinol against reference sweetener solutions; assay type: in vivo
Protocol: as §1
Reference solutions: 5%, 7%, and 9% aqueous sucrose (sugar) solutions were prepared.
Reference solutions: 5%, 7%, and 9% aqueous sucrose solutions were prepared as in Example 1.
Reference solutions: 5%, 7%, 8% and 9% sucrose solutions in aqueous pH 3.0 citrate buffer solutions (citric acid 2.26 g plus trisodium citrate 0.32 g in 2 L water) were prepared.
Reference solutions: 2.5%, 3.5%, and 4% aqueous fructose (Sigma) solutions were prepared.
Reference solutions: 5%, 7%, 8% and 9% aqueous glucose (Sigma) solutions were prepared.
Reference solutions: 5%, 6%, 7%, 8% and 9% aqueous sucrose solutions were prepared. […] The variants were then tasted and assessed for their similarity to the reference solutions.
Reference solutions: 8%, 9%, 10%, and 11% aqueous sucrose solutions were prepared.
Reference solutions: 250 ppm and 320 ppm aqueous rebaudioside A solutions were prepared.

human sense of taste [9] = test: Taste of sugar solutions with phloroglucinol and salt against sugar controls; assay type: in vivo; settings: for Taste: body compared with 8% sugar control: 5% sugar in water
[10] = Example 13: 800 ppm phloroglucinol in SIERRA MIST
[11] = Example 25: 400 ppm phloroglucinol in 5% sucrose
[12] = Example 26: 400 ppm phloroglucinol and 200 ppm sodium chloride in 5% sucrose
[13] = Example 27: 800 ppm phloroglucinol in 8.475% sucrose
[14] = Example 8: 250 ppm phloroglucinol in 250 ppm aqueous rebaudioside A
[15] = Example 10, second taster: 250 ppm rebaudioside A with 800 ppm phloroglucinol
[16] = Example 17: 800 ppm phloroglucinol, 400 ppm salt, 8% sugar in water

SMILES: Oc1cc(O)cc(O)c1 [phloroglucinol]
- stability in solution [1]: stable and does not precipitate out of solution at the concentrations described herein, or break down at higher temperatures or when exposed to sunlight
- Taste (human sense of taste [2]; 300 ppm in water): No taste
- sweet taste of phloroglucinol by itself (human sense of taste [2]; 300 ppm to 800 ppm in water): No sweet taste was observed; also recorded: does not have any taste
- Taste (human sense of taste [2]; 400 ppm in water): No taste
- Taste (human sense of taste [2]; 400 ppm phloroglucinol, 100 ppm salt in water): No taste
- Taste (human sense of taste [2]; 500 ppm in water): No taste
- Taste (human sense of taste [2]; 500 ppm phloroglucinol, 100 ppm salt in water): No taste
- Taste (human sense of taste [2]; 600 ppm in water): No taste
- Taste (human sense of taste [2]; 600 ppm phloroglucinol, 100 ppm salt in water): No taste
- Taste, estimated sugar equivalent (human sense of taste [2]; 600 ppm phloroglucinol, 400 ppm salt in water): ~1% sugar
- Taste (human sense of taste [2]; 800 ppm in water): No taste
- taste of phloroglucinol in the presence of salt (human sense of taste [2]; Example 15: with sodium chloride): slightly sweet
- phloroglucinol concentration required to achieve the sweetness of an 11% sugar solution (human sense of taste [3]; in the presence of 300 ppm salt): 500 ppm
- phloroglucinol concentration required to achieve the sweetness of an 11% sugar solution (human sense of taste [3]; no salt): 800 ppm
- sweetness, as equivalent sugar solution (human sense of taste [3]; Example 15 variant 2: 8% sugar, 500 ppm phloroglucinol, 300 ppm salt): 11 % sugar
- sweetness compared with low control (no salt) and 11% sugar high control (human sense of taste [3]; Example 15 variant: 8% sugar, 300 ppm phloroglucinol, 300 ppm salt): much sweeter than the low control, but not quite as sweet as the high control
- sweetness compared with low control (5 g sugar) and high control (8 g sugar) (human sense of taste [4]; Example 14: 5 g sugar and 137 mg phloroglucinol per bag of IQO (29 g), warm and room temperature): sweeter than the low control but not quite as sweet as the high control
- sweetness compared with high control (8 g sugar) (human sense of taste [4]; Example 21: 5 g sugar, 100 mg phloroglucinol, 1 g D-psicose per bag of IQO (29 g)): sweetness similar to the high control
- sweetness of variant cola beverage compared with control cola (11.3 Brix) (human sense of taste [5]; Example 12: 1/3 less HFCS (8 Brix without phloroglucinol), 800 ppm phloroglucinol): equal
- mouthfeel and flavor of variant cola beverage (human sense of taste [5]; Example 12: 1/3 less HFCS, 800 ppm phloroglucinol): good mouthfeel; also recorded: more sour but with less caramel sweet flavor
- sweetness after storage (human sense of taste [5]; Example 12 cola, stored at 90° F. for 18 days): sweetness remained about the same
- body and sourness (human sense of taste [5]; [10]): good body; also recorded: Sourness was about the same
- sweetness compared with untreated control (human sense of taste [5]; [10]): much sweeter than the control
- sweetness of variant cola beverage compared with control cola (11.3 Brix) (human sense of taste [5]; Example 19: 35% less HFCS (7.5 Brix), 400 ppm phloroglucinol and 1% D-psicose): equal
- mouthfeel of variant cola beverage (human sense of taste [5]; Example 19: 400 ppm phloroglucinol and 1% D-psicose): very good mouthfeel
- combination effect with rebaudioside C (human sense of taste [6]): synergistic
- sweet taste increased to, as sucrose equivalent (human sense of taste [7]; [11]): approximately 6.4%
- sweetness enhancement (human sense of taste [7]; [11]): approximately 28%
- sweet taste increased to, as sucrose equivalent (human sense of taste [7]; [12]): approximately 6.6%
- sweetness enhancement (human sense of taste [7]; [12]): approximately 32%
- statistical comparison with 11.3% sucrose solution (human sense of taste [7]; [13]): statistically indistinguishable from the 11.3% solution
- sweet taste increased to, as sucrose equivalent (human sense of taste [7]; [13]): approximately 11.76%
- sweetness enhancement (human sense of taste [7]; [13]): about 39%
- sweetness, as equivalent aqueous sucrose reference solution (human sense of taste [8]; Example 1: 400 ppm phloroglucinol in 5% aqueous sucrose, references 5%, 7%, 9% sucrose): > 5% and ~7%
- temporal profile and quality of sweet taste (human sense of taste [8]; Example 2: 800 ppm phloroglucinol in 5% aqueous sucrose): sweetness of the variant took a split of a second to show but the backend seemed even sweeter; also recorded: the sweet taste was clean without lingering
- sweetness, as equivalent sucrose reference solution (human sense of taste [8]; Example 3: 800 ppm phloroglucinol in 5% aqueous sucrose without buffer, references 5-9% sucrose in pH 3.0 citrate buffer): ~8%
- temporal profile and quality of sweet taste (human sense of taste [8]; Example 3: 800 ppm phloroglucinol in 5% aqueous sucrose, references in pH 3.0 citrate buffer): sweetness of the variant took a split of a second to show but the backend seemed even sweeter; also recorded: the sweet taste was clean without lingering
- sweetness, as equivalent aqueous fructose reference solution (human sense of taste [8]; Example 4: 800 ppm phloroglucinol in 2.5% aqueous fructose): > 3.5% and ~4%
- temporal profile of sweet taste (human sense of taste [8]; Example 4: 800 ppm phloroglucinol in 2.5% aqueous fructose vs 4% fructose): the variant solution was sweeter in backend
- sweetness, as equivalent aqueous glucose reference solution (human sense of taste [8]; Example 5: 800 ppm phloroglucinol in 5% aqueous glucose): ~8% and < 9%
- dose response of apparent sweetness (FIG. 1) (human sense of taste [8]; Example 6: 40, 100, 200, 400, 600, 800 ppm phloroglucinol in 5% aqueous sucrose): approximately linear correlation between phloroglucinol concentration and apparent sweetness
- sweetness, as equivalent aqueous rebaudioside A reference solution (human sense of taste [8]; [14]): ~320 ppm
- taste quality (backend, bitter aftertaste of rebaudioside A) (human sense of taste [8]; [14]): a sweeter backend; also recorded: bitter aftertaste of rebaudioside A was not changed
- bitterness of the variant solution (human sense of taste [8]; [15]): did not change
- sweetness, as equivalent rebaudioside A reference solution (human sense of taste [8]; [15]): ~320 ppm
- sweetness, as equivalent aqueous sucrose reference solution (human sense of taste [8]; Examples 2, 10: 800 ppm phloroglucinol in 5% aqueous sucrose, references 5%, 7%, 9% sucrose): > 7% and < 9% and ~8%
- sweetness, as equivalent aqueous sucrose reference solution (human sense of taste [8]; Examples 7, 10, 11: 800 ppm phloroglucinol in 8% aqueous sucrose, first, second, third taster): > 10% and ~11% and > 11%
- Taste: body compared with 8% sugar control (human sense of taste [9]; 600 ppm phloroglucinol, 400 ppm salt): more body
- Taste: body compared with 8% sugar control (human sense of taste [9]; 800 ppm phloroglucinol, 400 ppm salt): more body
- Taste: sweet taste as sugar equivalent (human sense of taste [9]; Example 17: 600 ppm phloroglucinol, 600 ppm salt, 8% sugar in water): ≥ 11 % sugar
- Taste: body (human sense of taste [9]; [16]): high body
- Taste: sweet taste as sugar equivalent (human sense of taste [9]; [16]): 12 % sugar
- Taste: sweet taste as sugar equivalent (human sense of taste [9]; Example 17: 800 ppm phloroglucinol, no salt, 8% sugar in water): 11 % sugar
- Taste: sweet taste as sugar equivalent (human sense of taste [9]; Example 17: 800 ppm phloroglucinol, no salt, 8% sugar in water, listed as Phloroglucinol): ~11% sugar
